Laboratory results taken from patent US11072587B2, “Administration of aurora kinase inhibitors for anti-malarial therapy” (University of Central Florida Research Foundation, Inc., priority 2017, dated 2021).

What was measured:
[1] = tested on: 3T3 Mouse fibroblast cells; experiment: MTS cytotoxicity assay; type: cell-based; settings: for Selectivity Index: 3T3 EC50 versus Dd2 IC50; for EC50 / EC90: cytotoxicity, 3T3 mouse fibroblast cells
Description: The intraerythrocytic development of the malaria parasite diverges from the paradigm of eukaryotic cell cycle. Novelty of the Plasmodium cell cycle offers opportunities for development of therapeutics directed against essential components. […] Essential Plasmodium Aurora-related kinases (Arks) 1, 2, and 3 are homologous to Aurora A and B, Ser/Thr kinases involved in cell division. […] To discover potent and selective small molecule inhibitors of PfArks, screening was conducted of a library of optimized mammalian Aurora kinase inhibitors that have evolved from a general pharmacophore models for Ser/Thr kinases. In addition, we are also repurposing human Aurora kinase inhibitors to discover antimalarial lead compounds. Novel potent inhibitors (EC50<1 μM) were identified in cell-based screening using SYBR Green I fluorescence based assay. Selectivity of the hits against mammalian cells were determined using the MTS ((3-(4,5 dimethylthiazol-2-yl)-5-(3-carboxymethoxyphenyl)-2-(4-sulfophenyl)-2H-tetrazolium, inner salt) cell proliferation assay. Results from our studies to assess structure-activity-relationship, specificity of inhibition, and cellular effects of the compounds will be presented.
(§1) 7 hit compounds and 17 mammalian Aurora A and B inhibitors in clinical trial were screened by SYBR Green I-based fluorescence assay to determine IC50 values in chloroquine-resistant P. falciparum Dd2 and the cytotoxicity was evaluated in 3T3 Mouse fibroblast cells using MTS cytotoxicity assay. The results of the top 2 ASINEX library compounds and 3 commercially available mammalian Aurora A and B inhibitors are shown in Table 1 below with noted structures provided in FIG. 16.

PfArk2 = experiment: γ-P32 ATP utilization kinase assay with MBP as substrate; type: biochemical, Plasmodium falciparum; settings: GST-tagged PfArk2 2.5 μg, MBP 2.5 μg, autoradiogram (FIG. 17B)
Description: GST-tagged PfArk2 was purified using affinity chromatography (FIG. 17A). Compounds were added to a standard kinase assay at indicated concentrations against PfArk-2 (2.5 μg) in a γ-P^32 ATP utilization assay with MBP (2.5 μg) as substrate (FIG. 17B). Upper panels show Coomassie Blue-stained gel and the lower panel is the corresponding autoradiogram.

[2] = tested on: chloroquine-resistant P. falciparum Dd2; experiment: SYBR Green I-based fluorescence assay, intraerythrocytic growth inhibition; type: cell-based, Plasmodium falciparum; settings: for IC50 / IC90: P. falciparum Dd2, 72 h
Description: Ten millimolar compound stocks in DMSO were diluted by ½, ⅕, and/or 1/10 fold dilutions in ultrapure water or RPMI 1640. Varying concentrations of compound were added to culture at a 1% parasitemia and 2% hematocrit in 96-well black plates. Assay conditions maintained maximum DMSO concentrations less than 0.125% per dilution. Positive (baseline 0% growth) controls consisted of Chloroquine at 1 μM final concentration. Following 72 h incubation at 37° C. in 5% CO2, dilution plates were frozen at −80° C. for a minimum of 30 minutes. Dilution plates were allowed to thaw followed by lysis treatment and SYBR Green I incorporation. DNA quantification was determined using a fluorescence reading on a Synergy H4 multimode plate reader set at 485 nm excitation and 530 nm emission as previously reported (Roberts, Iyamu et al. 2016). EC50 was calculated from a dose response curve that was generated from a concentration range of 0-10 μM using GraphPad Prism v5.0.
Different dilutions of the compound/fraction in 1 μl of the culture medium were added to 99 μl of P. falciparum culture at a 1% parasitemia and 2% hematocrit in 96-well plates. Maximum DMSO concentration in the culture never exceeded 0.125%. Chloroquine at 1 μM was used as a positive control to determine the baseline value. Following 72 hours incubation at 37° C., the plates were frozen at −80° C. After thawing, 100 μL of lysis buffer (with SYBR Green I dye 1:10,000) was added to each well and plates were incubated at room temperature for 30 minutes prior to reading.
80 compounds were screened for their ability to inhibit the intraerythrocytic growth of chloroquine-resistant P. falciparum Dd2 using a SYBR Green I-based fluorescence assay at 1 μM.
as §1

[3] = P. falciparum Dd2, compound at 1 μM, 72 h

Row | Compound | Selectivity Index [1] | EC50 [1] [nM] | EC90 [1] [nM] | Inhibition of PfArk2 activity (PfArk2) | IC50 [2] [nM] | IC90 [2] [nM] | % inhibition (1 μM) [2, 3] [%] | IC50 ([2]; Plasmodium falciparum) [nM] | IC90 ([2]; Plasmodium falciparum) [nM] | inhibition at 1 µM ([2]; Plasmodium falciparum, P. falciparum Dd2, compound at 1 μM, 72 h) [%]
1 | COc1cc2c(Nc3ccc(NC(=O)c4ccccc4)cc3)ncnc2cc1OCCCN1CCOCC1 [DC-0005146, ZM-447439] | 3.7 | 3780 | 11700 | not particularly effective in inhibiting PfArk2 activity | 1020 | 4320 | 75 | – | – | –
2 | CCn1cc(-c2ccnc3[nH]c(-c4cccc(CN(C)C)c4)cc23)c(-c2ccc(NC(=O)N(C)C)cc2)n1 [DC-0005154, GSK-1070916] | 13.5 | 5970 | 15900 | not particularly effective in inhibiting PfArk2 activity | – | – | – | 441 | 1720 | 87
3 | BI-847325 [DC-0005156] | 2.5 | 1310 | > 26700 | – | 530 | 2000 | 93 | – | – | –
